Reference: US20160279187A1, “CALPAIN INHIBITORS FOR IBD AND COLORECTAL CANCER TREATMENT” (UNIVERSITY OF HAWAII, priority 2013, published 2016)
Where a SMILES comes first, the peptide text is derived from it. The star is where a group is joined. Cbz = O=C(OCc1ccccc1)*; CH2F = FC*

Test system: cytokine mRNAs in colon tissues
Test: AOM/DSS model, colon cytokine mRNA by real-time PCR
Format: in vivo, mice
Conditions: day 63, vs vehicle control
Procedure: Mice subjected to the AOM/DSS model were sacrificed on day 63 and colons removed and assessed by histology and cytokine mRNA analyses. […] To further assess inflammation, mouse colon tissues were harvested at the end of the chronic colitis model and mRNA levels for different cytokines measured by real-time PCR.
To determine if a similar mechanism may be contributing to the effect of the calpain-2 inhibition in the DSS model of colitis, macrophages were analyzed for NFκB activation and inflammatory cytokine secretion. Bone marrow derived macrophages were primed […] with TNFα (20 ng/ml) and activated with E. faecalis (1 μg/ml) for 1 h in the presence or absence of calpain-2 inhibitor (20 μg/ml). Supernatants were evaluated for a panel of cytokines including IFNγ, TNFα, IL-6, and MCP-1, IL-10, and IL-12. Real-time PCR was performed on total RNA extracted from colon tissues to access levels of cytokines. Media was collected from wells and cytokines assessed by CBA kit (BD Biosciences). For IκB blotting cells were lysed and SDS-PAGE was performed. Membranes were stained with anti-IκB (Cell Signalling) and anti-βactin (Santa Cruz). For NfκB blotting an NFκB Activation Kit (Five Photon) was used to isolate nuclear fractions. These fractions were transferred using SDS-PAGE. The membranes were stained with anti-NFκB (Santa Cruz) or anti-TATA (Abcam). Data are mean±SE (n=3) and represent results from three independent experiments. *p<0.05; one way ANOVA followed by Tukey post-test. […] Importantly, those cytokines most affected by the calpain-2 are regulated by NFκB.

CC(C)C[C@H](NC(=O)OCc1ccccc1)C(=O)N[C@@H](CC(C)C)C(=O)N[C@@H](Cc1ccc(O)cc1)C(=O)CF [zLLY-CH2F, Z-LLY-CH2F] (Cbz-Leu-Leu-Tyr-CH2F)
IFNγ mRNA level in colon: not significantly different | IL-6 mRNA level in colon: lowered | MCP-1 mRNA level in colon: lowered | TNFα mRNA level in colon: lowered
